Experimental data published in patent publication US20230203023A1, “SALT AND CRYSTAL FORMS OF GLP-1R AGONISTS AND USES THEREOF” (QILU REGOR THERAPEUTICS INC., priority 2020, published 2023).
Counter-ions that a name gives are not always drawn. Like-named read-outs stand apart in the source and are kept apart here.

What was measured:
Assay type in all cases: physicochemical
[1] = Kinetic solubility test in water and bio-relevant media (SGF, FaSSIF, FeSSIF); conditions: for Purity (%), area percentage of API: for reference only (suspensions); for FC: form change: residual solids by XRPD; for pH: supernatant
How it was run: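 Solids (~1 mg/mL loading as freeform) rolled at 25 rpm, 37° C in water, SGF (pH 1.8), FaSSIF (pH 6.5) or FeSSIF (pH 5.0). Sampled at 1, 4 and 24 h, centrifuged and filtered (0.45 μm PTFE). Supernatant concentration by HPLC, with pH measured; residual solids checked by XRPD.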

[2] = Solid stability evaluation (II/II), HPLC in triplicate
Procedure: The chemical stability of 1:1 Compound II Citrate Salt (Form A) and 1:1 Compound II Tris Salt (Form B) was further evaluated at solid state, samples were stored under the ambient condition or 40° C./75% RH for 1 day and 3 days, respectively.

[3] = Solution stability evaluation in SGF (pH 1.8) and pH 8.0 buffer at RT; conditions: for Purity (% area) / pH / Purity vs. Initial (%): 0.01 mg/mL
Procedure: Weigh 100 mg of sodium chloride and 50 mg of Triton X-100 into a 50-mL volumetric flask. Add appropriate volume of purified water and sonicate until all solids are completely dissolved. Add about 68 μL of 12 M HCl and sufficient purified water closely to the target volume and adjust to pH 1.8. Dilute to volume with purified water, mix well and check the pH with a pH meter.
Add sufficient purified water closely to the target volume and adjust to pH 8.0. Dilute to volume with purified water, mix well and check the pH with a pH meter. […]
Solution stability was evaluated for 1:1 Compound II Citrate Salt (Form A) and 1:1 Compound II Tris Salt (Form B) in SGF (pH 1.8) and pH 8.0 buffer at RT. Clear solutions were prepared at two concentrations (0.01 mg/mL, 0.05 mg/mL) and then placed at RT for 6 hours, 1/5 days or 6 hours, 1/3/7 days. […] The HPLC purity and pH value were tested and the results were summarized from Table 7-3-1 to Table 7-3-4.

[4] = pH 8.0 (50 mM phosphate), Initial
[5] = pH 8.0 (50 mM phosphate), RT, 6 hours
[6] = pH 8.0 (50 mM phosphate), RT, 1 day
[7] = pH 8.0 (50 mM phosphate), RT, 5 days

In the case of `O=C(O)c1ccc2nc(CN3CC=C(c4cccc(OCc5ccc(Cl)cc5F)c4)CC3)n(C[C@@H]3CCO3)c2c1` [Tris salt Form A, (S)-2-((4-(3-((4-chloro-2-fluorobenzyl)-oxy)phenyl)-3,6-dihydropyridin-1(2H)-yl)methyl)-1-(oxetan-2-ylmethyl)-1H-benzo[d]-imidazole-6-carboxylic acid], the “Purity (%), area percentage of API” value ([1]; FaSSIF, 1 hour) is reported as 92.63%, the “S: solubility” value ([1]; FaSSIF, 4 hours, 37° C.) is reported as 0.01 mg/mL and the “S: solubility” value ([1]; FaSSIF, 24 hours, 37° C.) is reported as 0.01 mg/mL. For the same molecule, the “Purity (%), area percentage of API” value ([1]; FaSSIF, 24 hours) was 58.70%, the “Purity (%), area percentage of API” value ([1]; FeSSIF, 1 hour) was 94.61% and the “S: solubility” value ([1]; FeSSIF, 4 hours, 37° C.) was 0.2 mg/mL. The “Purity (%), area percentage of API” value ([1]; FeSSIF, 4 hours) was 81.75%, the “S: solubility” value ([1]; FeSSIF, 24 hours, 37° C.) was 0.03 mg/mL and the “Purity (%), area percentage of API” value ([1]; FeSSIF, 24 hours) was 43.32%. For the same molecule, the “S: solubility” value ([1]; H2O, 1 hour, 37° C.) was 0.1 mg/mL, the “Purity (%), area percentage of API” value ([1]; H2O, 1 hour) was 96.74% and the “S: solubility” value ([1]; H2O, 4 hours, 37° C.) was 0.1 mg/mL. The “Purity (%), area percentage of API” value ([1]; H2O, 4 hours) was 89.77%, the “Purity (%), area percentage of API” value ([1]; H2O, 24 hours) was 60.35% and the “Solubility in H2O, comparison in words” value ([1]; H2O, compared with the other tested materials) was “better solubility”. It also gave a solubility at 1 h ([1]; SGF, 37 °C, pH 1.8, simulated gastric fluid, thermodynamic from solid, SGF, 1 hour, 37° C., read-out: S: solubility) of 0.4 mg/mL, a solubility at 4 h ([1]; SGF, 37 °C, pH 1.8, simulated gastric fluid, thermodynamic from solid, SGF, 4 hours, 37° C., read-out: S: solubility) of 0.4 mg/mL and a solubility at 24 h ([1]; SGF, 37 °C, pH 1.8, simulated gastric fluid, thermodynamic from solid, SGF, 24 hours, 37° C., read-out: S: solubility) of 0.5 mg/mL. For the same molecule, the “Purity (%), area percentage of API” value ([1]; SGF, 1 hour) was 93.12%, the “Purity (%), area percentage of API” value ([1]; SGF, 4 hours) was 93.05% and the “Purity (%), area percentage of API” value ([1]; SGF, 24 hours) was 89.49%. For the same molecule, the “Form change in SGF, in words” value ([1]; SGF, XRPD after solubility test) was “Form change was observed”, the “FC: form change” value ([1]; FaSSIF, 24 hours) was “No” and the “FC: form change” value ([1]; SGF, 1 hour) was “Yes”. The “FC: form change” value ([1]; SGF, 4 hours) was “Yes”, the “FC: form change” value ([1]; SGF, 24 hours) was “Yes” and the pH ([1]; FaSSIF, 4 hours) was 6.6. The pH ([1]; FaSSIF, 24 hours) was 6.6, the pH ([1]; FeSSIF, 1 hour) was 5.1 and the pH ([1]; H2O, 1 hour) was 8.0. The pH ([1]; H2O, 4 hours) was 8.2, the pH ([1]; H2O, 24 hours) was 8.4 and the pH ([1]; SGF, 1 hour) was 1.9. For the same molecule, the pH ([1]; SGF, 4 hours) was 2.0, the pH ([1]; SGF, 24 hours) was 1.9 and the solubility at 24 h ([1]; water, 37 °C, water, thermodynamic from solid, H2O, 24 hours, 37° C., read-out: S: solubility) was 0.05 mg/mL. The “Ave. Purity (area %)” value ([2]; 40° C./75% RH (open), 1 day) was 94.8 area %, the “Ave. Purity (area %)” value ([2]; 40° C./75% RH (open), 3 days) was 94.7 area % and the “Ave. Purity (area %)” value ([2]; Ambient condition (open), 1 day) was 94.8 area %. The “Ave. Purity (area %)” value ([2]; Ambient condition (open), 3 days) was 94.8 area %, the “Ave. Purity (area %)” value ([2]; Initial) was 94.5 area % and the “Chemical stability at solid state, in words” value ([2]; ambient condition or 40° C./75% RH, 1 day and 3 days) was “better chemical stability”. The “Purity (% area)” value ([3]; pH 1.8 (SGF), Initial) was 100.00 % area, the pH ([3]; pH 1.8 (SGF), Initial) was 1.8 and the “Purity (% area)” value ([3]; pH 1.8 (SGF), RT, 6 hours) was 100.00 % area. For the same molecule, the “Purity vs. Initial (%)” value ([3]; pH 1.8 (SGF), RT, 6 hours) was 100.0%, the pH ([3]; pH 1.8 (SGF), RT, 6 hours) was 1.8 and the “Purity (% area)” value ([3]; pH 1.8 (SGF), RT, 1 day) was 100.00 % area. For the same molecule, the “Purity vs. Initial (%)” value ([3]; pH 1.8 (SGF), RT, 1 day) was 100.0%, the pH ([3]; pH 1.8 (SGF), RT, 1 day) was 1.8 and the “Purity (% area)” value ([3]; pH 1.8 (SGF), RT, 5 days) was 97.40 % area. For the same molecule, the “Purity vs. Initial (%)” value ([3]; pH 1.8 (SGF), RT, 5 days) was 97.4%, the pH ([3]; pH 1.8 (SGF), RT, 5 days) was 1.8 and the “Purity (% area)” value [3, 4] was 97.70 % area. For the same molecule, the pH [3, 4] was 8.1, the “Purity (% area)” value [3, 5] was 96.92 % area and the “Purity vs. Initial (%)” value [3, 5] was 99.2%. The pH [3, 5] was 8.0, the “Purity (% area)” value [3, 6] was 96.07 % area and the “Purity vs. Initial (%)” value [3, 6] was 98.3%. The pH [3, 6] was 8.0, the “Purity (% area)” value [3, 7] was 94.34 % area and the “Purity vs. Initial (%)” value [3, 7] was 96.6%. The pH [3, 7] was 8.0, the “Stability of the pH 1.8 solution, in words” value ([3]; SGF pH 1.8, RT, after 1 day) was “No significant degradation” and the “Stability of the pH 8.0 solution, in words” value ([3]; pH 8.0 buffer, RT) was “decreased slightly”.
